Reference: article PMC4522657, “Identification of a DYRK1A Inhibitor that Induces Degradation of the Target Kinase using Co-chaperone CDC37 fused with Luciferase nanoKAZ” (Scientific Reports, 2015)

What was measured:
Assay in all cases: Kinase panel, CaNDY 1 µM
Assay type in all cases: biochemical
Conditions in all cases: CaNDY 1 µM relative to DMSO
[1] = biological target: T1, SYK (Homo sapiens, UniProt P43405)
T1 construct: purchased Carna Biosciences

[2] = biological target: T2, QIK (Homo sapiens, UniProt Q9H0K1)
T2 construct: purchased Carna Biosciences
Source text: (§1) Detailed information on the assay conditions is available on the website of Carna Biosciences (http://www.carnabio.com/english/index.html; Kobe, Japan). In brief, full-length human recombinant kinases were expressed using a baculovirus expression system as amino-terminal GST-fusion proteins, and purified by glutathione-Sepharose chromatography. The GenBank accession numbers of DYRK1A, DYRK1B, DYRK2, and DYRK3 were NP_001387.2, NP_004705.1, NP_003574.1, and NP_003573.2. Kinase activities were evaluated by Off-chip Mobility Shift Assay after reaction of 1 μM of the substrate DYRKtide-F with ATP (25 μM for DYRK1A, 50 μM for DYRK1B, 10 μM for DYRK2, and 5 μM for DYRK3). For each compound, a DMSO solution was diluted in assay buffer to yield a final concentration of 1% DMSO. After incubation for one hour at room temperature, substrate phosphorylation was analyzed by electrophoretic separation of the substrate and products using a Caliper LC3000 platform (Caliper Life Sciences, Mountain View, CA, USA). The phosphorylated product (P)/(P + substrate) ratio was calculated at each concentration of each small molecule and the percent inhibition was expressed relative to a control assay in the absence of the small molecule. […] The IC50 of each compound was calculated by interpolation on a log-concentration-response curve fitted with a four-parameter logistic equation.
(§2) All kinase assays were carried out at Carna Biosciences. The inhibitory map was made with Kinome Render[36].

[3] = biological target: T3, GSK3β (Homo sapiens, UniProt P49841)
T3 construct: purchased Carna Biosciences
Source text: as §1, §2

[4] = biological target: T4, CDK5/p25 (Homo sapiens, UniProt Q00535)
T4 construct: purchased Carna Biosciences
Source text: as §1, §2

[5] = biological target: T5, NEK6 (Homo sapiens, UniProt Q9HC98)
T5 construct: purchased Carna Biosciences
Source text: as §1, §2

[6] = biological target: T6, CK1δ (Homo sapiens, UniProt P48730)
T6 construct: purchased Carna Biosciences
Source text: as §1, §2

[7] = biological target: T7, PKCι (Homo sapiens, UniProt P41743)
T7 construct: purchased Carna Biosciences
Source text: as §1, §2

[8] = biological target: T8, PKCθ (Homo sapiens, UniProt Q04759)
T8 construct: purchased Carna Biosciences
Source text: as §1, §2

[9] = biological target: T9, WNK3 (Homo sapiens, UniProt Q9BYP7)
T9 construct: purchased Carna Biosciences
Source text: as §1, §2

[10] = biological target: T10, SGK3 (Homo sapiens, UniProt Q96BR1)
T10 construct: purchased Carna Biosciences
Source text: as §1, §2

[11] = biological target: T11, NEK2 (Homo sapiens, UniProt P51955)
T11 construct: purchased Carna Biosciences
Source text: as §1, §2

[12] = biological target: T12, BRAF(V600E)_Cascade (Homo sapiens, UniProt P15056, V600E)
T12 construct: purchased Carna Biosciences
Source text: as §1, §2

[13] = biological target: T13, MARK1 (Homo sapiens, UniProt Q9P0L2)
T13 construct: purchased Carna Biosciences
Source text: as §1, §2

[14] = biological target: T14, EPHB3 (Homo sapiens, UniProt P54753)
T14 construct: purchased Carna Biosciences
Source text: as §1, §2

[15] = biological target: T15, MST4 (Homo sapiens, UniProt Q9P289)
T15 construct: purchased Carna Biosciences
Source text: as §1, §2

[16] = biological target: T16, HIPK4 (Homo sapiens, UniProt Q8NE63)
T16 construct: purchased Carna Biosciences
Source text: as §1, §2

[17] = biological target: T17, PKCη (Homo sapiens, UniProt P24723)
T17 construct: purchased Carna Biosciences
Source text: as §1, §2

[18] = biological target: T18, PKCδ (Homo sapiens, UniProt Q05655)
T18 construct: purchased Carna Biosciences
Source text: as §1, §2

[19] = biological target: T19, MST2 (Homo sapiens, UniProt Q13188)
T19 construct: purchased Carna Biosciences
Source text: as §1, §2

[20] = biological target: T20, DLK_Cascade (Homo sapiens, UniProt Q12852)
T20 construct: purchased Carna Biosciences
Source text: as §1, §2

[21] = biological target: T21, TSSK1 (Homo sapiens, UniProt Q9BXA7)
T21 construct: purchased Carna Biosciences
Source text: as §1, §2

[22] = biological target: T22, NEK1 (Homo sapiens, UniProt Q96PY6)
T22 construct: purchased Carna Biosciences
Source text: as §1, §2

[23] = biological target: T23, MAPKAPK5 (Homo sapiens, UniProt Q8IW41)
T23 construct: purchased Carna Biosciences
Source text: as §1, §2

[24] = biological target: T24, EPHB2 (Homo sapiens, UniProt P29323)
T24 construct: purchased Carna Biosciences
Source text: as §1, §2

[25] = biological target: T25, ITK (Homo sapiens, UniProt Q08881)
T25 construct: purchased Carna Biosciences
Source text: as §1, §2

[26] = biological target: T26, TSSK2 (Homo sapiens, UniProt Q96PF2)
T26 construct: purchased Carna Biosciences
Source text: as §1, §2

[27] = biological target: T27, EPHA5 (Homo sapiens, UniProt P54756)
T27 construct: purchased Carna Biosciences
Source text: as §1, §2

[28] = biological target: T28, SRPK1 (Homo sapiens, UniProt Q96SB4)
T28 construct: purchased Carna Biosciences
Source text: as §1, §2

[29] = biological target: T29, MET (Homo sapiens, UniProt P08581)
T29 construct: purchased Carna Biosciences
Source text: as §1, §2

[30] = biological target: T30, SPHK1 (Homo sapiens, UniProt Q9NYA1)
T30 construct: purchased Carna Biosciences
Source text: as §1, §2

[31] = biological target: T31, DDR1 (Homo sapiens, UniProt Q08345)
T31 construct: purchased Carna Biosciences
Source text: as §1, §2

[32] = biological target: T32, NEK4 (Homo sapiens, UniProt P51957)
T32 construct: purchased Carna Biosciences
Source text: as §1, §2

[33] = biological target: T33, MAP3K3_Cascade (Homo sapiens, UniProt Q99759)
T33 construct: purchased Carna Biosciences
Source text: as §1, §2

[34] = biological target: T34, AKT3 (Homo sapiens, UniProt Q9Y243)
T34 construct: purchased Carna Biosciences
Source text: as §1, §2

[35] = biological target: T35, JAK3 (Homo sapiens, UniProt P52333)
T35 construct: purchased Carna Biosciences
Source text: as §1, §2

[36] = biological target: T36, ROCK2 (Homo sapiens, UniProt O75116)
T36 construct: purchased Carna Biosciences
Source text: as §1, §2

T4 sequence (Q00535 whole entry): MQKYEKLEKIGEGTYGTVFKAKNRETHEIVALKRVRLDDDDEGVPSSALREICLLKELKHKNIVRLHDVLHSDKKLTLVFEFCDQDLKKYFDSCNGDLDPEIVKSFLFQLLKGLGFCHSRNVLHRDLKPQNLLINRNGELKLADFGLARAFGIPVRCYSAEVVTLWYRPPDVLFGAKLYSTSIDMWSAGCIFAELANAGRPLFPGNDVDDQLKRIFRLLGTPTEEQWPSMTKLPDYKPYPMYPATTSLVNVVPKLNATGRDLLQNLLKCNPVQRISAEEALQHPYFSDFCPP
T4 sequence (Q15078 99-307 partner limits assumed): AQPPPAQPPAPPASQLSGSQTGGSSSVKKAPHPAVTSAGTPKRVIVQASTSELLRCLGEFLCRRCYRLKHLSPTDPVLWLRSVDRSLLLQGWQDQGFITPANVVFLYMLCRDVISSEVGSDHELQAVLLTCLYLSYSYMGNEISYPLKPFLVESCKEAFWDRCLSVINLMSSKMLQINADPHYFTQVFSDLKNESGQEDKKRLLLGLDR
T34 sequence (Q9Y243 whole entry): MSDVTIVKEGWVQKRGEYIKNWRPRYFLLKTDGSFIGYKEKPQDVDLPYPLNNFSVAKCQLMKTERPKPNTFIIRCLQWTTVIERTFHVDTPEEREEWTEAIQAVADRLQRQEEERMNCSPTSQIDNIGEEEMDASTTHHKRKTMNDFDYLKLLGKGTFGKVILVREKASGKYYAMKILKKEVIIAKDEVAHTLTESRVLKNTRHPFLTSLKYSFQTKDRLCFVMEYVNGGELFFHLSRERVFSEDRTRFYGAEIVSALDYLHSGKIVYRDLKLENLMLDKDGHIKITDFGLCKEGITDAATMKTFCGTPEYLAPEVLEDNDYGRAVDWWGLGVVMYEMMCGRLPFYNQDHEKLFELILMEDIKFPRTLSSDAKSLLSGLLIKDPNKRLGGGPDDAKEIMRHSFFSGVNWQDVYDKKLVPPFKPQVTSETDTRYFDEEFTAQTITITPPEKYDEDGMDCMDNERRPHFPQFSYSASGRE
T17 sequence (P24723 whole entry): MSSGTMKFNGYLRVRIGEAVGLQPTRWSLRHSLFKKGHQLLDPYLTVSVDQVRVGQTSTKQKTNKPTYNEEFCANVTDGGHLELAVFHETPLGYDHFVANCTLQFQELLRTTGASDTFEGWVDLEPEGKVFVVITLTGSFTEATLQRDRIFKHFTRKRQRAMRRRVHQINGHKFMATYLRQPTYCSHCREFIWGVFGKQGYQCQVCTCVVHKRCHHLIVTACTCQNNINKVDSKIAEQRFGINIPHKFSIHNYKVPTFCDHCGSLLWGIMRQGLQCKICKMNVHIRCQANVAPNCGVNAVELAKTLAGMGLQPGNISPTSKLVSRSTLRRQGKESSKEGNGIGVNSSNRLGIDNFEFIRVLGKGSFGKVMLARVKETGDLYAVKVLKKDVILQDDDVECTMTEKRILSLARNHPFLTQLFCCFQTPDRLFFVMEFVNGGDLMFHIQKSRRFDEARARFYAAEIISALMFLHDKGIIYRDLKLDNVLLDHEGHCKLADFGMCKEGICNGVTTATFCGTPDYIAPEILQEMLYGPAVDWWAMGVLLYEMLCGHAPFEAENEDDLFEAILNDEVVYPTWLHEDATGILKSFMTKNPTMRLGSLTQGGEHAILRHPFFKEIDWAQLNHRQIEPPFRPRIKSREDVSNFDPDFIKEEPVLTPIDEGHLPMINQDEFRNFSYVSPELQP
T22 sequence (Q96PY6 whole entry): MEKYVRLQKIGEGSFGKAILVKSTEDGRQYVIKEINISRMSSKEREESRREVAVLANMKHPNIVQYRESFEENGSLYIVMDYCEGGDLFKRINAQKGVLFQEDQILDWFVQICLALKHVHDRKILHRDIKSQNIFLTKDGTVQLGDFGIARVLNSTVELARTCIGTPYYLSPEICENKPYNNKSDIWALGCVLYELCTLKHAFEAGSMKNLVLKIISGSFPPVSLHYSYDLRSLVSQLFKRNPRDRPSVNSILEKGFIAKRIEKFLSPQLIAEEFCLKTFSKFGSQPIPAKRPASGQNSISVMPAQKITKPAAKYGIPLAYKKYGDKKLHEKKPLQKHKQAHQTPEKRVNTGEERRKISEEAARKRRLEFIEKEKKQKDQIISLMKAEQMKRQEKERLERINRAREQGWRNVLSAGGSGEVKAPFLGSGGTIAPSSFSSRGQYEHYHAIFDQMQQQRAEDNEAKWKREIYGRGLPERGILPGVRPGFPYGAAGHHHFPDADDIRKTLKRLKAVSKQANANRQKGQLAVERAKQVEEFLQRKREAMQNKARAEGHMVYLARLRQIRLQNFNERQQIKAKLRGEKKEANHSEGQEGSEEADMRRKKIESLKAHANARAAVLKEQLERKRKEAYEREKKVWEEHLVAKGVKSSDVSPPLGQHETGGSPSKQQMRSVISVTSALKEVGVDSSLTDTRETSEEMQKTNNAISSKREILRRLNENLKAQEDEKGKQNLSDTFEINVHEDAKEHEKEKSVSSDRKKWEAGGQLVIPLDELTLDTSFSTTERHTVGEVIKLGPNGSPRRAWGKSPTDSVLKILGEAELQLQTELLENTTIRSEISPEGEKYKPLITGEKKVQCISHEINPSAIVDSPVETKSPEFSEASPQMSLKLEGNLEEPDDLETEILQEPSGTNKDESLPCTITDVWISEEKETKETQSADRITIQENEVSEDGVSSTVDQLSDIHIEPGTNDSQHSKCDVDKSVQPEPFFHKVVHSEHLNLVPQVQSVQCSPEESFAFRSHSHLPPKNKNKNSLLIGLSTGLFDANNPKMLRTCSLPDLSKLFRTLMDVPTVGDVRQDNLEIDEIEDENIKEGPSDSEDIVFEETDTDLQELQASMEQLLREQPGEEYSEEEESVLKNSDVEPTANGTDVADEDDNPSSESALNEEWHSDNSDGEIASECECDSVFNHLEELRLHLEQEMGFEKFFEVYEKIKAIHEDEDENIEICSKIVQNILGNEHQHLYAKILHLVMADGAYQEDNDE
T23 sequence (Q8IW41 whole entry): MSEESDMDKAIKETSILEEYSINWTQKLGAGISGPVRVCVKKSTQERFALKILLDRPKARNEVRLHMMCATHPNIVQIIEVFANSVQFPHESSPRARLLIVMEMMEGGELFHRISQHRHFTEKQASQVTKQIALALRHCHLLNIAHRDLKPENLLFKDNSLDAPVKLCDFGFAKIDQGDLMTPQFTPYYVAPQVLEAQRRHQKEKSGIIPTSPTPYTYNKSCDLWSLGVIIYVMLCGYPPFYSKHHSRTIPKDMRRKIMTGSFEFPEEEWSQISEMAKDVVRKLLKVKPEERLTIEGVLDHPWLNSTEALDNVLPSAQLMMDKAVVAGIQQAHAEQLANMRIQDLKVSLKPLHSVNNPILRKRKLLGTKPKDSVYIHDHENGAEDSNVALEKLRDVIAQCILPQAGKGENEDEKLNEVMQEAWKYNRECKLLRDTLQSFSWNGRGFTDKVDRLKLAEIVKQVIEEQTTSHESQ
T19 sequence (Q13188 whole entry): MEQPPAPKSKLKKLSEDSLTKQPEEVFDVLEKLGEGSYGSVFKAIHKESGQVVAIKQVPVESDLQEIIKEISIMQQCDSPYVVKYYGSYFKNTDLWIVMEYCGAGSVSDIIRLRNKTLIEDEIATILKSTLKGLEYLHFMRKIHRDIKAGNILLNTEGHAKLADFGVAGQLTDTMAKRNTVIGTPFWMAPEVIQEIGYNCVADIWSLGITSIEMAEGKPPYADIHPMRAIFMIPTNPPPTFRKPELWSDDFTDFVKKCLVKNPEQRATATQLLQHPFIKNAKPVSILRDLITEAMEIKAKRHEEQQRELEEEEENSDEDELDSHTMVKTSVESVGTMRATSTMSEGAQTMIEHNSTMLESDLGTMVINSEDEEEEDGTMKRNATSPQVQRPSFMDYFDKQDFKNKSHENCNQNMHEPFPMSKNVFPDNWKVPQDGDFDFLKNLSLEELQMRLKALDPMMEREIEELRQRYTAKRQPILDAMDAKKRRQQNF
T30 sequence (Q9NYA1 whole entry): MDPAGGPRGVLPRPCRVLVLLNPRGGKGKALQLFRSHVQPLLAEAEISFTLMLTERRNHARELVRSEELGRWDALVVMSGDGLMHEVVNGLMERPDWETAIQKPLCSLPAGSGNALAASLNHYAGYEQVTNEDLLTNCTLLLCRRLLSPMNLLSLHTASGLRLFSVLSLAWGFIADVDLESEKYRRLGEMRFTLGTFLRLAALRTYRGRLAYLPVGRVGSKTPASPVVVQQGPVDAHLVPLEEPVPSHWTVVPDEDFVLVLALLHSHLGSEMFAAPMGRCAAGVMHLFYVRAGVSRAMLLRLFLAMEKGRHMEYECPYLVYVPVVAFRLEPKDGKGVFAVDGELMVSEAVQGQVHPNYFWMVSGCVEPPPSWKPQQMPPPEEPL
T26 sequence (Q96PF2 whole entry): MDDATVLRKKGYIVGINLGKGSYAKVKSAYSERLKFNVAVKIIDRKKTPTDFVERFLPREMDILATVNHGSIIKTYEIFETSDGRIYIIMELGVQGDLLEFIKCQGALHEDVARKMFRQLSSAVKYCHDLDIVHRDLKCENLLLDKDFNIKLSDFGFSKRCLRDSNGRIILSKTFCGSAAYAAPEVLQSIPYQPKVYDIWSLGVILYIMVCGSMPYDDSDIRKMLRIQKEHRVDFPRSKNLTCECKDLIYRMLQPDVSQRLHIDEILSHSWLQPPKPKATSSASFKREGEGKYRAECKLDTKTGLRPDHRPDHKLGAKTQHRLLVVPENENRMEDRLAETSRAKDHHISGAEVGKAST
T21 sequence (Q9BXA7 whole entry): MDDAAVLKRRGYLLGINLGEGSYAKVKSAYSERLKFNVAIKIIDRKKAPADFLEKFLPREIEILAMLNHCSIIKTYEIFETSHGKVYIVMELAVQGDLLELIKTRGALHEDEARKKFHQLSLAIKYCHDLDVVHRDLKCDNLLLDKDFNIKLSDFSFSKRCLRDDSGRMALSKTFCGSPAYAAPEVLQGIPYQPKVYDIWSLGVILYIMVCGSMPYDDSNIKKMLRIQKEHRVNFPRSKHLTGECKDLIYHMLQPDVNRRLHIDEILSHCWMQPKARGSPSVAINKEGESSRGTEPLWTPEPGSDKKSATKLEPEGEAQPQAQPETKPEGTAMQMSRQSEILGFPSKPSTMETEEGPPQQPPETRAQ

[H]/N=C1/NC(=O)C(=Cc2ccc3c(c2)CCO3)S1 [CaNDY, (Z)-5-[(2,3-dihydrobenzofuran-5-yl)methylene]-2-iminothiazolidin-4-one]
%Activity [1]: 93.7% | remaining activity at 1 µM [2]: 99.5% | remaining activity at 1 µM [3]: 74.1% | remaining activity at 1 µM [4]: 88.5% | remaining activity at 1 µM [5]: 96.1% | remaining activity at 1 µM [6]: 67.9% | remaining activity at 1 µM [7]: 101% | remaining activity at 1 µM [8]: 74.9% | remaining activity at 1 µM [9]: 102% | remaining activity at 1 µM [10]: 93.3% | remaining activity at 1 µM [11]: 95.3% | remaining activity at 1 µM [12]: 105% | remaining activity at 1 µM [13]: 94.4% | remaining activity at 1 µM [14]: 98.6% | remaining activity at 1 µM [15]: 103% | remaining activity at 1 µM [16]: 78.2% | remaining activity at 1 µM [17]: 92.8% | remaining activity at 1 µM [18]: 74.1% | remaining activity at 1 µM [19]: 103% | %Activity [20]: 102.6% | remaining activity at 1 µM [21]: 94.5% | remaining activity at 1 µM [22]: 95.6% | remaining activity at 1 µM [23]: 95.5% | %Activity [24]: 99.8% | %Activity [25]: 99.9% | remaining activity at 1 µM [26]: 102% | %Activity [27]: 100.1% | remaining activity at 1 µM [28]: 101% | %Activity [29]: 97.7% | remaining activity at 1 µM [30]: 83.5% | remaining activity at 1 µM [31]: 99.3% | remaining activity at 1 µM [32]: 86.2% | remaining activity at 1 µM [33]: 104% | remaining activity at 1 µM [34]: 104% | remaining activity at 1 µM [35]: 94.2% | remaining activity at 1 µM [36]: 103%
